The text below walks through data of US20080187911A1, “Methods and compositions for analysis of mitochondrial-related gene expression” (priority 2003, published 2008).

The subject of experiment [1] is mitochondrial DNA encoded gene expression. Description: Microarray analysis of mitochondrial DNA encoded gene expression in response to 3-nitropropionic acid. Format: cell-based. Conditions: 3 NPA treatments at 6, 12 and 26 hours; inhibition of Complex II (succinic dehydrogenase). The procedure:
FIGS. 5A-5B. Analysis of mitochondrial DNA encoded gene expression. FIG. 5A—response to 3-nitropropionic acid, an inhibitor of Complex II—succinic dehydrogenase. […] FIG. 5B-analysis of mitochondrial DNA encoded gene expression in trypanosome infected heart tissue.
Analysis of mitochondrial DNA encoded gene expression in response to 3-nitropropionic acid (3NPA), an inhibitor of Complex II—succinic dehydrogenase was performed (FIG. 5A, Table 5). The 3 NPA treatments were at 6, 12 and 26 hours.

The subject of experiment [2] is mouse mitochondrial genes in AML-12 mouse liver cells. Description: Microarray analysis of the effects of rotenone on expression of mouse mitochondrial genes. Format: cell-based. Conditions: AML-12 mouse liver cells in culture. The source says:
FIG. 4. The effects of rotenone, an inhibitor of mitochondrial Complex I, on the expression of mouse mitochondrial genes in AML-12 mouse liver cells in culture.
The effects of rotenone, an inhibitor of mitochondrial Complex I, on the expression of mouse mitochondrial genes in AML-12 mouse liver cells in culture were examined (FIG. 4; Table 4). […] Spots A1-G11 represent mitochondrial related nuclear encoded genes; spots G12-H12 represent the 13 genes encoded by mitochondrial DNA. It should be noted that in subsequent microarray designs (constructions) the mitochondrial DNA encoded genes G12-H12 were removed from the filters and arrayed separately. Thus, the G12-H12 spots were replaced with nuclear encoded genes. […] E4 and E5 represent the […] and 16S mitochondrial ribosomal RNAs.

Regarding `O=C(O)CC[N+](=O)[O-]` [3-nitropropionic acid], in experiment [1], the “synthesis of mitochondrial encoded mRNAs and ribosomal RNAs” value is “stimulates the synthesis of mitochondrial encoded mRNAs and the 23S and 16S ribosomal RNAs”.

For the molecule `C=C(C)[C@H]1Cc2c(ccc3c2O[C@@H]2COc4cc(OC)c(OC)cc4[C@@H]2C3=O)O1` [rotenone], the “mRNA pool levels of mitochondrial-related genes on the microarray” value in experiment [2] (genes named: A11 ATP synthase lipid binding proteins, B8 ADP, ATP carrier protein, B9 cytochrome C oxidase chain VIIa, D12 chaperonin 10, E12 pyruvate carboxylase, H7 Complex I: Protein Dehydrogenase chain 3) is “up-regulated”. For the same molecule, in experiment [2] (inhibition of Complex I, suggested compensatory response), the “production of mRNAs of Complex I proteins (H7, H10)” value is “may stimulate the production of mRNAs of Complex I proteins (H7, H10)”.
